Experimental data: patent US10045529B2, “Quat cleaner with glycerin ether ethoxylates” (Ecolab USA Inc., priority 2012, dated 2018)

Tests used:
[1] = Tergotometer detergency test on EMPA soiled swatches
Method: Laundry detergent compositions using 500 ppm sodium hydroxide (e.g. caustic) and the indicated conventional Surfonic® surfactant or the glycerin ether ethoxylate solfactant according to the invention were evaluated. A tergotometer test procedure was employed to measure detergency of test compositions according to the invention. A tergotometer along with 500 mL pots and water bath were employed. First, unwashed swatches from the lot numbers to be used in the test are read on the Konica Minolta Spectrophotometer model CM-3600d to establish the average initial (before washing) L value. A sampling of each swatch type is used. The desired wash temperature is programmed into the Tergotometer and its water bath is allowed to heat up to that temperature. 500 mL of the desired water type is added to each Tergotometer pot and allowed to equilibrate to the desired temperature.
The following standard, commercially available (EMPA) soiled swatches were used for baseline testing in the Examples, as shown in Table 9.
The test detergent compositions are weighed out and added to the Tergotometer pots. Various detergent compositions as shown in Tables 10-11 were employed under varying water conditions, including 5 grain water (Table 10) and 17 grain water (Table 11).
The detergent systems were agitated for 10 minutes to mix and dissolve in the water sources. The agitation/mixing speed RPM was adjusted to 200. The temperature of the detergent compositions dissolved in water was 60° C., unless indicated otherwise in the Figures/Examples set forth below. The swatches are added quickly to their respective pots in a left to right sequence in order to minimize differences in exposure time to the detergent systems. A wash run is completed for at least 10 minutes. At the end of the run, the swatches are removed from the pots quickly in a left to right sequence using a forceps and are transferred into 500 mL-1 liter of cool water to rinse. After rinsing with cold tap water, excess water from the swatches was removed by squeezing the swatches. The process was repeated with rinsing and squeezing excess water at least 2 more times. The swatches were air dried on a visa napkin or paper towel on the lab bench.
The swatches were then read on the HunterLab Color Quest and calculate % soil removal (i.e. whiteness) from the difference between the initial (before washing) L value and the final L value (after washing). Percent Soil Removal=(L after−L initial)/(96−L initial)*100 is represented as L*.

[2] = Glewwe foam meter foam height test; format: physicochemical; settings: 50 ppm; for OBSERVATIONS (foam stability after pump stopped): after 5 minutes pump stopped; for Foam Height (in) @ 1 MIN / Foam Height (in) @ 5 MIN: city water 17 gpg, 140° F., 6 psi; for Foam Height (in) @ 1 MIN: 1 minute
Excerpt: Foam testing was completed for the ethoxylated glycerine ether solfactants in comparison to commercially-available ethoxylated alcohols using a Glewwe foam meter. A Glewwe foam meter provides a dynamic foam test rather than a static test, which is considered more appropriate for simulation of industrial conditions. The equipment and general procedure for the Glewwe form test is described in U.S. Pat. Nos. 3,899,387 and 5,447,648, which are herein incorporated by reference in its entirety. The foam meter itself consists of a thermostated reservoir and a pump to recirculate the aqueous medium with foaming tendencies. The foam developed by the action of the aqueous stream impinging on the surface in the reservoir causes foam formation.
The foam heights of the tested compositions were determined using the following method. First 3000 mL of city water (e.g. 17 gpg) was filled into the Glewwe cylinder. The pump was turned on, pressure adjusted to 6 psi, and heated water to 140° F. The commercially available surfactant (or the solfactant according to the invention) was added at 50 ppm in the cylinder and the timer was started. Foam height was recorded at 1 minute and 5 minutes. After 5 minutes the pump was stopped and foam stability characteristics were observed. The cylinder was then drained, rinsed, and the methods repeated.

[3] = Cloud point of solfactants in various solutions; format: physicochemical; settings: 1% in 10% NaCl
Excerpt: Various 2-Ethyl Hexanol Glycerin Ether Ethoxylate solfactants were produced using ethoxylation by a KOH Catalyst.
Further the cloud point data for the solfactants in various solutions is shown. The cloud point temperatures show the temperature above which a surfactant-rich phase separates from an aqueous solution. There is a clear relationship between the cloud point and the average EO content of the glycerin ether ethoxylate; as the ethylene oxide content of the solfactant increases, the cloud point and water solubility increase. As the carbon number on the molecule increases, a greater number of moles of ethylene oxide are required to be added to the molecule to retain the same cloud point.

Gel formation with water = format: physicochemical
Excerpt: The low foam profiles and low viscosity of the glycerin ether ethoxylate solfactants as shown in Examples 5 and 6 were further compared to gel curves of conventional ethoxylated alcohols (e.g. Tomadol surfactants). […]

[4] = Differential Scanning calorimetry (DSC) freeze or melt point; format: physicochemical
Method: Differential Scanning calorimetry (DSC) was run on the various 2-Ethyl Hexanol Glycerin Ether Ethoxylate solfactants set forth in Table 1. The DSC evaluated additional properties of the exemplary set of novel solfactants, namely the freezing point of the molecules. The DSC utilized can be measured down to minus 80° C. for determining a freeze or melt points of a liquid. […] This is distinct form conventional alcohol ethoxylates (having equivalent degrees of ethoxylation) which have very high melt points. For example, many conventional alcohol ethoxylate surfactants have melt points at room temperature or higher, resulting in the compositions being solids at room temperature. In addition, as one skilled in the art ascertains, the more ethyl oxide you add to a standard alcohol ethoxylate, the higher the melt point. This is distinct from the solfactants according to the invention, including the 2-Ethyl Hexanol Glycerin Ether Ethoxylate solfactants set forth in Table 1. For example, Tomadol 24-9 is a solid at room temperature, whereas the equivalent 2EHGE 9 mole is a liquid at room temperature.

[5] = 5 gpg water, 50 ppm, 500 ppm sodium hydroxide, 60° C., EMPA 116 (Blood, milk and ink, Cotton)
[6] = 5 gpg, 50 ppm, EMPA 101 (olive oil/carbon black, Cotton)
[7] = 5 gpg, 50 ppm, EMPA 104 (olive oil/carbon black, Cotton blend)
[8] = 5 gpg, 50 ppm, EMPA 106 (mineral oil, Cotton)
[9] = 5 gpg, 50 ppm, EMPA 111 (Pig blood, Cotton)
[10] = 5 gpg, 50 ppm, EMPA 114 (Red wine, Cotton)
[11] = Glycerin Ether Ethoxylate %/Water % 10%/90%

| Substance | % removal EMPA 116 [1, 5] | % removal EMPA 101 [1, 6] | % removal EMPA 104 [1, 7] | % removal EMPA 106 [1, 8] | % removal EMPA 111 [1, 9] | % removal EMPA 114 [1, 10] | % removal EMPA 101 ([1]; 5 gpg, 100 ppm, EMPA 101) | % removal EMPA 104 ([1]; 5 gpg, 100 ppm, EMPA 104) | % removal EMPA 106 ([1]; 5 gpg, 100 ppm, EMPA 106) | % removal EMPA 111 ([1]; 5 gpg, 100 ppm, EMPA 111) | % removal EMPA 114 ([1]; 5 gpg, 100 ppm, EMPA 114) | % removal EMPA 116 ([1]; 5 gpg, 100 ppm, EMPA 116) | % removal EMPA 101 ([1]; 17 gpg, 50 ppm, EMPA 101) | % removal EMPA 104 ([1]; 17 gpg, 50 ppm, EMPA 104) | % removal EMPA 106 ([1]; 17 gpg, 50 ppm, EMPA 106) | % removal EMPA 111 ([1]; 17 gpg, 50 ppm, EMPA 111) | % removal EMPA 114 ([1]; 17 gpg, 50 ppm, EMPA 114) | % removal EMPA 116 ([1]; 17 gpg, 50 ppm, EMPA 116) | % removal EMPA 101 ([1]; 17 gpg, 100 ppm, EMPA 101) | % removal EMPA 104 ([1]; 17 gpg, 100 ppm, EMPA 104) | further results |
| --- | --- | --- | --- | --- | --- | --- | --- | --- | --- | --- | --- | --- | --- | --- | --- | --- | --- | --- | --- | --- | --- |
| 2-Ethyl Hexanol Glycerin Ether Ethoxylate (7 moles) [2EHGE (7 EO)] | 33% | 38% | 47% | 59.88% | 52% | 1% | 25% | 17% | 46.8% | 49% | −3% | 19% | 20% | 15% | 11% | 32% | 0% | 16% | 20% | 17% | % removal EMPA 106 ([1]; 17 gpg, 100 ppm, EMPA 106): 9%; % removal EMPA 111 ([1]; 17 gpg, 100 ppm, EMPA 111): 35%; % removal EMPA 114 ([1]; 17 gpg, 100 ppm, EMPA 114): 0%; % removal EMPA 116 ([1]; 17 gpg, 100 ppm, EMPA 116): 17%; OBSERVATIONS (foam stability after pump stopped) [2]: Unstable - Breaks; Foam Height (in) @ 1 MIN [2]: 5 in; Foam Height (in) @ 5 MIN [2]: 4.5 in; Cloud Point Data 1% in 10% NaCl [3]: 78 °C; Gel Formation (Gel formation with water; 20%/80%): None; Gel Formation (Gel formation with water; 30%/70%): None; Gel Formation (Gel formation with water; 40%/60%): None; Gel Formation (Gel formation with water; 50%/50%): None; Gel Formation (Gel formation with water; 60%/40%): None; Gel Formation (Gel formation with water; 70%/30%): None; Gel Formation (Gel formation with water; 80%/20%): None; Gel Formation (Gel formation with water; 90%/10%): None; Gel Formation (Gel formation with water; [11]): None |
| 2-Ethyl Hexanol Glycerin Ether Ethoxylate (9 moles) [2EHGE (9 EO)] | 33% | 32% | 38% | 55.18% | 48% | 2% | 29% | 24% | 50.14% | 54% | 0% | 25% | 21% | 19% | 9% | 35% | 1% | 21% | 20% | 16% | Physical state at room temperature [4]: liquid; % removal EMPA 106 ([1]; 17 gpg, 100 ppm, EMPA 106): 10%; % removal EMPA 111 ([1]; 17 gpg, 100 ppm, EMPA 111): 32%; % removal EMPA 114 ([1]; 17 gpg, 100 ppm, EMPA 114): 1%; % removal EMPA 116 ([1]; 17 gpg, 100 ppm, EMPA 116): 20%; OBSERVATIONS (foam stability after pump stopped) [2]: Unstable - Breaks; Foam Height (in) @ 1 MIN [2]: 4.5 in; Foam Height (in) @ 5 MIN [2]: 4.5 in; Cloud Point Data 1% in 10% NaCl [3]: 95 °C; Gel Formation (Gel formation with water; 20%/80%): None; Gel Formation (Gel formation with water; 30%/70%): None; Gel Formation (Gel formation with water; 40%/60%): None; Gel Formation (Gel formation with water; 50%/50%): None; Gel Formation (Gel formation with water; 60%/40%): None; Gel Formation (Gel formation with water; 70%/30%): None; Gel Formation (Gel formation with water; 80%/20%): None; Gel Formation (Gel formation with water; 90%/10%): None; Gel Formation (Gel formation with water; [11]): None |
